This passage reports IC50 and Caco-2 results from patent publication US12378243B2, “Quinoline compounds as inhibitors of KRAS” (Incyte Corporation, priority 2021, dated 2025).

Structures are written as SMILES.

In one data set the target is KRAS G12D (Homo sapiens, UniProt P01116, G12D). Description: GDP-GTP exchange assay, KRAS G12D. It counts as biochemical. The note with it: bodipy-loaded KRAS G12D 2.5 nM, GppNHp 500 uM, SOS1 150 nM; 4 hours pre-incubation, 2 hours incubation; read-out: G12D_exchange. In short, it runs like this: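 Nucleotide exchange started with 1 mM GppNHp and 300 nM SOS1, then 2 h at ambient temperature. IC50 from four-parameter logistic fit with variable Hill slope.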

For another data set, the system named is Caco-2 cells. Description: Caco2 assay (permeability, A-B). It counts as in vitro ADME. The note with it: Table 4; Papp absorptive direction (A-B), test compound 50 μM, 120 minutes at 37° C. The procedure, abridged:
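Caco-2 monolayers grown 22-25 days on Transwells, used only at TEER ≥300 Ω·cm^2. Compound at 50 μM in HBSS added apically, receiver HBSS with 4% BSA; 120 min at 37 °C. LCMS quantification; Papp from receiver flux slope, membrane area and initial donor amount.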
For orientation: Passage across Caco-2 layers is used to estimate intestinal permeability.

A further data set deals with KRAS G12V mutant (Homo sapiens, UniProt P01116, G12V). Description: GDP-GTP exchange assay, KRAS G12V. The note with it: bodipy loaded KRAS G12V 2.5 nM; 3 hours incubation after adding GppNHp-SOS1 mixture; read-out: G12V_exchange. The format is biochemical.
Chain of KRAS G12V mutant (P01116 1-188 isoform P01116-2 G12V): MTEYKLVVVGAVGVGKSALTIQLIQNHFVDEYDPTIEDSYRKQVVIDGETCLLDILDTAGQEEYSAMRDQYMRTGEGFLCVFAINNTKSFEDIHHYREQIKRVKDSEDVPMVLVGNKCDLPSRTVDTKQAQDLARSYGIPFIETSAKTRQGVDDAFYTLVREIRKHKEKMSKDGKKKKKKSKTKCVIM

Chain of KRAS G12D (P01116 1-188 isoform P01116-2 G12D): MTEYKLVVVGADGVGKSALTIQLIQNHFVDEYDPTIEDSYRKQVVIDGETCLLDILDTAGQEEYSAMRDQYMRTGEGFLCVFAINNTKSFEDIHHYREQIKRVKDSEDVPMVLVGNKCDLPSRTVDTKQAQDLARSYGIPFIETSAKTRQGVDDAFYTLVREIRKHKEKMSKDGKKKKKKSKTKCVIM

For the compound `Cc1nc2c(F)c(-c3cccc(Cl)c3Cl)c(CCC#N)cc2c2c1cc([C@@H](C)N(C)C(=O)C1CC1)n2[C@H]1[C@H]2CN[C@@H]1C2` [Example 60, N-((1R)-1-(1-((1R,4R,5S)-2-Azabicyclo[2.1.1]hexan-5-yl)-8-(2-cyanoethyl)-7-(2,3-dichlorophenyl)-6-fluoro-4-methyl-1H-pyrrolo[3,2-c]quinolin-2-yl)ethyl)-N-methylcyclopropanecarboxamide], the values for the IC50 at KRAS G12D and on KRAS G12V mutant were less than 0.1 µM and 0.1 to 1 µM, respectively. The Caco-2 entry in the data set on Caco-2 cells is reported as “+++ (a Caco-2 value of >1)”.
In the case of `CC(O)c1nc2c(F)c(-c3cccc(Cl)c3Cl)c(CCC#N)cc2c2c1cc([C@@H](C)NC(=O)C1(C)CC1)n2[C@H]1[C@H]2CN[C@@H]1C2` (stereo partly drawn) [Example 61, N-((1R)-1-(1-((1R,4R,5S)-2-Azabicyclo[2.1.1]hexan-5-yl)-8-(2-cyanoethyl)-7-(2,3-dichlorophenyl)-6-fluoro-4-(1-hydroxyethyl)-1H-pyrrolo[3,2-c]quinolin-2-yl)ethyl)-1-methylcyclopropane-1-carboxamide], the IC50 at KRAS G12D and at KRAS G12V mutant was less than 0.1 µM in each case. In the data set on Caco-2 cells, the Caco-2 result is “++ (a Caco-2 value of >0.5 but ≤1)”.
With `CC(O)c1nc2c(F)c(-c3cccc(Cl)c3Cl)c(CCC#N)cc2c2c1cc([C@H]1C[C@H]3C[C@H]3N1C(=O)C1(C)CC1)n2[C@H]1[C@H]2CN[C@@H]1C2` (stereo partly drawn) [Example 62, 3-(1-((1R,4R,5S)-2-Azabicyclo[2.1.1]hexan-5-yl)-7-(2,3-dichlorophenyl)-6-fluoro-4-(1-hydroxyethyl)-2-((1R,3R,5R)-2-(1-methylcyclopropane-1-carbonyl)-2-azabicyclo[3.1.0]hexan-3-yl)-1H-pyrrolo[3,2-c]quinolin-8-yl)propanenitrile], the IC50 on KRAS G12D and on KRAS G12V mutant was less than 0.1 µM throughout. The Caco-2 result in the data set on Caco-2 cells is on record as “+++ (a Caco-2 value of >1)”.
With `CC(O)c1nc2c(F)c(-c3cccc(Cl)c3Cl)c(CCC#N)cc2c2c1cc([C@H]1C[C@H]3C[C@H]3N1C(=O)C1(F)CC1)n2[C@H]1[C@H]2CN[C@@H]1C2` (stereo partly drawn) [Example 63, 3-(1-((1R,4R,5S)-2-Azabicyclo[2.1.1]hexan-5-yl)-7-(2,3-dichlorophenyl)-6-fluoro-2-((1R,3R,5R)-2-(1-fluorocyclopropane-1-carbonyl)-2-azabicyclo[3.1.0]hexan-3-yl)-4-(1-hydroxyethyl)-1H-pyrrolo[3,2-c]quinolin-8-yl)propanenitrile], the IC50 at KRAS G12D and on KRAS G12V mutant was less than 0.1 µM each time. In addition, in the data set on Caco-2 cells, the Caco-2 result is given as “+++ (a Caco-2 value of >1)”.
On to `Cc1nc2c(F)c(-c3cccc(Cl)c3Cl)c(CCC#N)cc2c2c1cc([C@H]1C[C@H]3C[C@H]3N1C(=O)C1(F)CC1)n2[C@H]1[C@H]2CN[C@@H]1C2` [Example 64, 3-(1-((1R,4R,5S)-2-Azabicyclo[2.1.1]hexan-5-yl)-7-(2,3-dichlorophenyl)-6-fluoro-2-((1R,3R,5R)-2-(1-fluorocyclopropane-1-carbonyl)-2-azabicyclo[3.1.0]hexan-3-yl)-4-methyl-1H-pyrrolo[3,2-c]quinolin-8-yl)propanenitrile], for which the IC50 on KRAS G12D is less than 0.1 µM; at KRAS G12V mutant it was 0.1 to 1 µM. For the same compound, the Caco-2 entry in the data set with Caco-2 cells is “+++ (a Caco-2 value of >1)”.
For `CC(O)c1nc2c(F)c(-c3cccc(Cl)c3Cl)c(CCC#N)cc2c2c1cc([C@@H](C)NC(=O)C1(F)CC1)n2[C@H]1[C@H]2CN[C@@H]1C2` (stereo partly drawn) [Example 65, N-((1R)-1-(1-((1R,4R,5S)-2-Azabicyclo[2.1.1]hexan-5-yl)-8-(2-cyanoethyl)-7-(2,3-dichlorophenyl)-6-fluoro-4-(1-hydroxyethyl)-1H-pyrrolo[3,2-c]quinolin-2-yl)ethyl)-1-fluorocyclopropane-1-carboxamide] the same measures were less than 0.1 µM, less than 0.1 µM and “+++ (a Caco-2 value of >1)”.
For `CC(O)c1nc2c(F)c(-c3cccc(Cl)c3Cl)c(CCC#N)cc2c2c1cc([C@@H](C)NC(=O)C1(F)CCC1)n2[C@H]1[C@H]2CN[C@@H]1C2` (stereo partly drawn) [Example 66, N-((1R)-1-(1-((1R,4R,5S)-2-azabicyclo[2.1.1]hexan-5-yl)-8-(2-cyanoethyl)-7-(2,3-dichlorophenyl)-6-fluoro-4-(1-hydroxyethyl)-1H-pyrrolo[3,2-c]quinolin-2-yl)ethyl)-1-fluorocyclobutane-1-carboxamide] the same measures were less than 0.1 µM, less than 0.1 µM and “+++ (a Caco-2 value of >1)”.
For `Cc1cc(C(C)c2cc3c(C)nc4c(F)c(-c5cccc(Cl)c5C)c(CCC#N)cc4c3n2[C@H]2[C@H]3CN[C@@H]2C3)c(=O)n(C)n1` (stereo partly drawn) [Example 67, 3-(1-((1R,4R,5S)-2-azabicyclo[2.1.1]hexan-5-yl)-7-(3-chloro-2-methylphenyl)-2-(1-(2,6-dimethyl-3-oxo-2,3-dihydropyridazin-4-yl)ethyl)-6-fluoro-4-methyl-1H-pyrrolo[3,2-c]quinolin-8-yl)propanenitrile] the same measures were less than 0.1 µM, less than 0.1 µM and “+++ (a Caco-2 value of >1)”.
In the case of `Cc1nc2c(F)c(-c3cccc(Cl)c3Cl)c(CCC#N)cc2c2c1cc([C@@H](C)NC(=O)c1ccncn1)n2[C@H]1[C@H]2CN[C@@H]1C2` [Example 68, N-((1R)-1-(1-((1R,4R,5S)-2-azabicyclo[2.1.1]hexan-5-yl)-8-(2-cyanoethyl)-7-(2,3-dichlorophenyl)-6-fluoro-4-methyl-1H-pyrrolo[3,2-c]quinolin-2-yl)ethyl)pyrimidine-4-carboxamide], the IC50 on KRAS G12D and at KRAS G12V mutant was less than 0.1 µM throughout. In addition, the Caco-2 result with Caco-2 cells is on record as “+++ (a Caco-2 value of >1)”.
In the case of `Cc1nc2c(F)c(-c3cccc(Cl)c3Cl)c(CCC#N)cc2c2c1cc([C@@H](C)NC(=O)c1cccnn1)n2[C@H]1[C@H]2CN[C@@H]1C2` [Example 69, N-((1R)-1-(1-((1R,4R,5S)-2-azabicyclo[2.1.1]hexan-5-yl)-8-(2-cyanoethyl)-7-(2,3-dichlorophenyl)-6-fluoro-4-methyl-1H-pyrrolo[3,2-c]quinolin-2-yl)ethyl)pyridazine-3-carboxamide], the IC50 on KRAS G12D and on KRAS G12V mutant was less than 0.1 µM throughout. The Caco-2 result in the data set with Caco-2 cells is on record as “+++ (a Caco-2 value of >1)”.
Regarding `Cc1nc2c(F)c(-c3cccc(Cl)c3Cl)c(CCC#N)cc2c2c1cc([C@@H](C)NC(=O)N1CC(F)(F)C1)n2[C@H]1[C@H]2CN[C@@H]1C2` [Example 70, N-((1R)-1-(1-((1R,4R,5S)-2-azabicyclo[2.1.1]hexan-5-yl)-8-(2-cyanoethyl)-7-(2,3-dichlorophenyl)-6-fluoro-4-methyl-1H-pyrrolo[3,2-c]quinolin-2-yl)ethyl)-3,3-difluoroazetidine-1-carboxamide], the IC50 at KRAS G12D and on KRAS G12V mutant was less than 0.1 µM in each case. Moreover, in the data set with Caco-2 cells, the Caco-2 entry was “+++ (a Caco-2 value of >1)”.
Consider `Cc1nc2c(F)c(-c3cccc(Cl)c3Cl)c(CCC#N)cc2c2c1cc([C@@H](C)Nc1cnn(C)c1)n2[C@H]1[C@H]2CN[C@@H]1C2` [Example 71, 3-(1-((1R,4R,5S)-2-azabicyclo[2.1.1]hexan-5-yl)-7-(2,3-dichlorophenyl)-6-fluoro-4-methyl-2-((R)-1-((1-methyl-1H-pyrazol-4-yl)amino)ethyl)-1H-pyrrolo[3,2-c]quinolin-8-yl)propanenitrile], for which the IC50 at KRAS G12D and at KRAS G12V mutant was less than 0.1 µM each time. In addition, the Caco-2 result with Caco-2 cells is recorded as “+++ (a Caco-2 value of >1)”.
As for `CN(C)C(=O)c1ccc(-c2nc3c(F)c(-c4cccc(Cl)c4Cl)c(CCC#N)cc3c3c2cc([C@H]2CCCN2C(=O)C2(F)CC2)n3[C@H]2[C@H]3CN[C@@H]2C3)cn1` [Example 72, 5-(1-((1R,4R,5S)-2-Azabicyclo[2.1.1]hexan-5-yl)-8-(2-cyanoethyl)-7-(2,3-dichlorophenyl)-6-fluoro-2-((R)-1-(1-fluorocyclopropane-1-carbonyl)pyrrolidin-2-yl)-1H-pyrrolo[3,2-c]quinolin-4-yl)-N,N-dimethylpicolinamide], the IC50 on KRAS G12D and at KRAS G12V mutant was less than 0.1 µM throughout. Also, in the data set on Caco-2 cells, the Caco-2 result is on record as “+++ (a Caco-2 value of >1)”.
As to `COC(=O)N1CCC[C@@H]1c1cc2c(-c3ccc(CN(C)C)c(F)c3F)nc3c(F)c(-c4cccc(Cl)c4Cl)c(CCC#N)cc3c2n1[C@H]1[C@H]2CN[C@@H]1C2` [Example 73, methyl (2R)-2-(1-((1R,4R,5S)-2-Azabicyclo[2.1.1]hexan-5-yl)-8-(2-cyanoethyl)-7-(2,3-dichlorophenyl)-4-(4-((dimethylamino)methyl)-2,3-difluorophenyl)-6-fluoro-1H-pyrrolo[3,2-c]quinolin-2-yl)pyrrolidine-1-carboxylate], the IC50 at KRAS G12D and on KRAS G12V mutant was less than 0.1 µM in each case. The Caco-2 entry with Caco-2 cells is recorded as “+++ (a Caco-2 value of >1)”.
